Where a name gives a salt, the structure may show the parent alone.
Columns and labels:
[1] = target: menin/MLL (terbium chelate-labeled menin, FITC-MBM1 peptide) (Homo sapiens (Human), UniProt O00255); test: Menin/MLL homogenous time-resolved fluorescence (HTRF) assay; type: binding; conditions: HTRF-30 min incubation IC50, 30 min incubation;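 note: IC50 from percent inhibition of HTRF signal, normalized between wells without competitor and wells with a saturating competitor that displaces FITC-MBM1 from His-tagged menin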
MOLM14 cells = test: Proliferation assay (spheroid growth, 8 days), MOLM14; type: cell-based, human; conditions: Homo sapiens, MOLM-14, […], MOLM14, 8 days; read-out: spheroid assay_OneTime MOLM14 IC50;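 note: spheroid size read as confluence by live-cell imaging, compounds added at a range of concentrations with 0.3% DMSO, DMSO-treated wells = 0%, highest reference dose = low control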
OCI-AML3 cells = test: Proliferation assay (spheroid growth, 8 days), OCI-AML3; type: cell-based, human; conditions: Homo sapiens, OCI-AML-3, […], OCI-AML3, 8 days
How it was run: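 8-day spheroid growth in ultra-low attachment plates; seeding 200 cells (MOLM14, OCI-AML3) or 300 (KO-52); DMSO 0.3%. Day-8 imaging, confluence vs DMSO (0%) and top reference dose (baseline); IC50 by variable-slope fit.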

KO-52 cells = test: Proliferation assay (spheroid growth, 8 days), KO-52 control cell line; type: cell-based, human; conditions: Homo sapiens, […], read-out: spheroid assay_OneTime KO-52 IC50
Procedure: The anti-proliferative effect of menin/MLL protein/protein interaction inhibitor test compounds was assessed in human leukemia cell lines. The cell line MOLM14 harbors a MLL translocation and expresses the MLL fusion protein MLL-AF9, respectively, as well as the wildtype protein from the second allele. OCI-AML3 cells that carry the NPM1c gene mutation were also tested. […] KO-52 was used as a control cell line containing two MLL (KMT2A) wildtype alleles in order to exclude compounds that display general cytotoxic effects.
KO-52 and OCI-AML3 cell lines were propagated in alpha-MEM (Sigma Aldrich) supplemented with 20% heat-inactivated fetal bovine serum (HyClone), 2 mM L-glutamine (Sigma Aldrich) and 50 μg/ml gentamycin (Gibco).
In order to assess the anti-proliferative effects, 200 MOLM14 cells, 200 OCI-AML3 cells or 300 KO-52 cells were seeded in 200 μl media per well in […] round bottom, ultra-low attachment plates (Costar, catalogue number 7007). Cell seeding numbers were chosen based on growth curves to ensure linear growth throughout the experiment. Test compounds were added at different concentrations and the DMSO content was normalized to 0.3%. Cells were incubated for 8 days at 37° C. and 5% CO2. Spheroid like growth was measured in real-time by live-cell imaging (IncuCyteZOOM, Essenbio, 4× objective) acquiring images at day 8. Confluence (%) as a measure of spheroid size was determined using an integrated analysis tool.
In order to determine the effect of the test compounds over time, the confluence in each well as a measure of spheroid size, was calculated. Confluence of the highest dose of a reference compound was used as baseline for the LC (Low control) and the confluence of DMSO treated cells was used as 0% cytotoxicity (High Control, HC).
GraphPad Prism(version 7.00) was used to calculate the IC50. Dose-response equation was used for the plot of % Effect vs Log 10 compound concentration with a variable slope and fixing the maximum to 100% and the minimum to 0%.

MEIS1 mRNA = MEIS1 mRNA expression assay (Quantigene Singleplex) in MOLM14 cells; type: cell-based, human; conditions: Homo sapiens, MOLM-14, 48 h, 48 hours incubation;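 note: MEIS1 transcript levels read by probe hybridization and normalized to RPL28 mRNA, with IC50 fitted to fold changes across a rising compound concentration series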

Sequence of menin/MLL (terbium chelate-labeled menin, FITC-MBM1 peptide) (O00255 other isoform, or with tags, fused parts or gaps): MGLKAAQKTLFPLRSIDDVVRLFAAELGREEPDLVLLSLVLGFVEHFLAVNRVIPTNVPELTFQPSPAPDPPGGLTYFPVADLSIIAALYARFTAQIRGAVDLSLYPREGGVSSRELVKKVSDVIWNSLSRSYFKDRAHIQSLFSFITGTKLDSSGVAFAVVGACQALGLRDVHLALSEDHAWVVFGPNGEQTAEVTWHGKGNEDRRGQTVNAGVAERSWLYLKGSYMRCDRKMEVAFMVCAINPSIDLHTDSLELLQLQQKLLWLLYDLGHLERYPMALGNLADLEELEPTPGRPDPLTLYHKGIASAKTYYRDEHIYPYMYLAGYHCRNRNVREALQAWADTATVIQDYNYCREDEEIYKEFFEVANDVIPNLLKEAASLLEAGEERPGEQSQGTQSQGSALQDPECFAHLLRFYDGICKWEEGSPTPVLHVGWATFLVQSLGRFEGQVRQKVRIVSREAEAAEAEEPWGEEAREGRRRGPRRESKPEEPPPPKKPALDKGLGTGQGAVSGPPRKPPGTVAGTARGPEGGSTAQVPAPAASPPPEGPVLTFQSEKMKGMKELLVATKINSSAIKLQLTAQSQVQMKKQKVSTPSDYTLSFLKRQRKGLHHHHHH

SMILES	IC50 [1] [nM]	IC50 (MOLM14 cells) [nM]	IC50 (OCI-AML3 cells) [nM]	IC50 (KO-52 cells) [nM]	IC50 (MEIS1 mRNA) [nM]
CCCN(C)CCC[C@@H](C(C)C)N1CC2(CCN(c3ncnnc3Oc3ccc(F)cc3C(=O)N(CC)C(C)C)C2)C1 (single isomer, unassigned) [Compound 128, (*S)—N-ethyl-5-fluoro-N-isopropyl-2-((5-(2-(2-methyl-6-(methyl(propyl)amino)hexan-3-yl)-2,6-diazaspiro[3.4]octan-6-yl)-1,2,4-triazin-6-yl)oxy)benzamide fumarate]	1.64	630	1990	11400	~680
CCN(C)CCC[C@@H](C(C)C)N1CC2(CCN(c3ncnnc3Oc3ccc(F)cc3C(=O)N(CC)C(C)C)C2)C1 (single isomer, unassigned) [Compound 133, (*S)—N-ethyl-2-((5-(2-(6-(ethyl(methyl)amino)-2-methylhexan-3-yl)-2,6-diazaspiro[3.4]octan-6-yl)-1,2,4-triazin-6-yl)oxy)-5-fluoro-N-isopropylbenzamide fumarate]	2.13	> 940	3500	> 15000	> 1000
CC(C)[C@@H](CCCN(C)CCC(=O)N(C)C)N1CC2(CCN(c3ncnnc3Oc3ccc(F)cc3C(=O)N(C(C)C)C(C)C)C2)C1 (single isomer, unassigned) [Compound 145, (*R)-2-((5-(2-(6-((3-(dimethylamino)-3-oxopropyl)(methyl)amino)-2-methylhexan-3-yl)-2,6-diazaspiro[3.4]octan-6-yl)-1,2,4-triazin-6-yl)oxy)-5-fluoro-N,N-diisopropylbenzamide fumarate]	0.07	14	110	> 15000	21
CCN(C(=O)c1cc(F)ccc1Oc1nncnc1N1CCC2(C1)CN([C@H](CCCN(C)C[C@H](COC)OC)C(C)C)C2)C(C)C (single isomer, unassigned) [Compound 176, 2-((5-(2-((R)-6-(((*R)-2,3-dimethoxypropyl)(methyl)amino)-2-methylhexan-3-yl)-2,6-diazaspiro[3.4]octan-6-yl)-1,2,4-triazin-6-yl)oxy)-N-ethyl-5-fluoro-N-isopropylbenzamide fumarate]	0.13	38	120	> 15000	17
CCN(C(=O)c1cc(F)ccc1Oc1nncnc1N1CCC2(C1)CN([C@H](CCCN(C)C[C@@H](COC)OC)C(C)C)C2)C(C)C (single isomer, unassigned) [Compound 177, 2-((5-(2-((R)-6-(((*S)-2,3-dimethoxypropyl)(methyl)amino)-2-methylhexan-3-yl-2,6-diazaspiro[3.4]octan-6-yl)-1,2,4-triazin-6-yl)oxy)-N-ethyl-5-fluoro-N-isopropylbenzamide fumarate]	0.062	24	64	> 15000	7.3
CCN(C(=O)c1cc(F)ccc1Oc1nncnc1N1CCC2(C1)CN([C@H](CCCN(C)[C@H](C)CC(=O)N(C)C)C(C)C)C2)C(C)C (single isomer, unassigned) [Compound 184, 2-((5-(2-((R)-6-(((*R)-4-(dimethylamino)-4-oxobutan-2-yl)(methyl)amino)-2-methylhexan-3-yl)-2,6-diazaspiro[3.4]octan-6-yl)-1,2,4-triazin-6-yl)oxy)-N-ethyl-5-fluoro-N-isopropylbenzamide fumarate]	~0.36	230	190	3000	110
CCN(C(=O)c1cc(F)ccc1Oc1nncnc1N1CCC2(C1)CN([C@H](CCCN(C)[C@@H](C)CC(=O)N(C)C)C(C)C)C2)C(C)C (single isomer, unassigned) [Compound 185, 2-((5-(2-((R)-6-(((*S)-4-(dimethylamino)-4-oxobutan-2-yl)(methyl)amino)-2-methylhexan-3-yl)-2,6-diazaspiro[3.4]octan-6-yl)-1,2,4-triazin-6-yl)oxy)-N-ethyl-5-fluoro-N-isopropylbenzamide fumarate]	0.2	79	61	1700	44
CCN(C(=O)c1cc(F)ccc1Oc1nncnc1N1CCC2(C1)CN([C@H](CCCN(C)C[C@@H](C)C(=O)N(C)C)C(C)C)C2)C(C)C (single isomer, unassigned) [Compound 188]	0.43	55	340	> 15000	34
CCN(C(=O)c1cc(F)ccc1Oc1nncnc1N1CCC2(C1)CN([C@H](CCCN(C)C[C@H](C)C(=O)N(C)C)C(C)C)C2)C(C)C (single isomer, unassigned) [Compound 189, 2-((5-(2-((R)-6-(((*S)-3-(dimethylamino)-2-methyl-3-oxopropyl)(methyl)amino)-2-methylhexan-3-yl)-2,6-diazaspiro[3.4]octan-6-yl)-1,2,4-triazin-6-yl)oxy)-N-ethyl-5-fluoro-N-isopropylbenzamide fumarate]	0.22	30	190	> 15000	19
CC(C)[C@@H](CCCN(C)[C@H](C)CC(N)=O)N1CC2(CCN(c3ncnnc3Oc3ccc(F)cc3C(=O)N(C(C)C)C(C)C)C2)C1 (single isomer, unassigned) [Compound 199, 2-((5-(2-((*R)-6-(((R)-4-amino-4-oxobutan-2-yl)(methyl)amino)-2-methylhexan-3-yl)-2,6-diazaspiro[3.4]octan-6-yl)-1,2,4-triazin-6-yl)oxy)-5-fluoro-N,N-diisopropylbenzamide fumarate]	0.13	460	1910	> 15000	~260
CC(C)[C@@H](CCCN(C)[C@@H](C)CC(N)=O)N1CC2(CCN(c3ncnnc3Oc3ccc(F)cc3C(=O)N(C(C)C)C(C)C)C2)C1 (single isomer, unassigned) [Compound 201, 2-((5-(2-((*R)-6-(((S)-4-amino-4-oxobutan-2-yl)(methyl)amino)-2-methylhexan-3-yl)-2,6-diazaspiro[3.4]octan-6-yl)-1,2,4-triazin-6-yl)oxy)-5-fluoro-N,N-diisopropylbenzamide fumarate]	0.13	40	65	> 15000	52
CC(C)[C@@H](CCCN(C)C[C@@H](C)C(N)=O)N1CC2(CCN(c3ncnnc3Oc3ccc(F)cc3C(=O)N(C(C)C)C(C)C)C2)C1 (single isomer, unassigned) [Compound 203, 2-((5-(2-((*R)-6-(((S)-3-amino-2-methyl-3-oxopropyl)(methyl)amino)-2-methylhexan-3-yl)-2,6-diazaspiro[3.4]octan-6-yl)-1,2,4-triazin-6-yl)oxy)-5-fluoro-N,N-diisopropylbenzamide fumarate]	0.3	38	75	> 15000	42
CC(C)[C@@H](CCCN(C)C[C@H](C)C(N)=O)N1CC2(CCN(c3ncnnc3Oc3ccc(F)cc3C(=O)N(C(C)C)C(C)C)C2)C1 (single isomer, unassigned) [Compound 205, 2-((5-(2-((*R)-6-(((S)-3-amino-2-methyl-3-oxopropyl)(methyl)amino)-2-methylhexan-3-yl)-2,6-diazaspiro[3.4]octan-6-yl)-1,2,4-triazin-6-yl)oxy)-5-fluoro-N,N-diisopropylbenzamide fumarate]	0.21	29	43	> 15000	35
